From ChEMBL document CHEMBL1201862, “PubChem BioAssay data set” (2004)
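Exposure lasted 48 hours, with cells grown in 96-well plates and compounds tested at five concentrations. GI50: concentration for 50% inhibition of growth.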 Calls of active or inactive are those of the source. Rule as the data show it: active = GI50 up to about 1.1 µM and inactive = higher.

Legend:
Experiment in all cases: DTP human tumour cell line panel, 48 h
U-251 = tested on: U-251
MDA-MB-435 = tested on: MDA-MB-435
NCI/ADR-RES = tested on: NCI/ADR-RES
SW-620 = tested on: SW-620
LOX IMVI = tested on: LOX IMVI
T47D = tested on: T47D
SN12C = tested on: SN12C
MCF7 = tested on: MCF7
HL-60 = tested on: HL-60
SF-295 = tested on: SF-295
NCI-H460 = tested on: NCI-H460
SF-539 = tested on: SF-539
MOLT-4 = tested on: MOLT-4
HCT-15 = tested on: HCT-15
RXF 393 = tested on: RXF 393
BT-549 = tested on: BT-549
OVCAR-3 = tested on: OVCAR-3
RPMI-8226 = tested on: RPMI-8226
OVCAR-4 = tested on: OVCAR-4
TK-10 = tested on: TK-10

| SMILES | GI50 (U-251) | GI50 (MDA-MB-435) | GI50 (NCI/ADR-RES) | GI50 (SW-620) | GI50 (LOX IMVI) | GI50 (T47D) | GI50 (SN12C) | GI50 (MCF7) | GI50 (HL-60) | GI50 (SF-295) | GI50 (NCI-H460) | GI50 (SF-539) | GI50 (MOLT-4) | GI50 (HCT-15) [µM] | GI50 (RXF 393) | GI50 (BT-549) | GI50 (OVCAR-3) | GI50 (RPMI-8226) | GI50 (OVCAR-4) | GI50 (TK-10) |
| --- | --- | --- | --- | --- | --- | --- | --- | --- | --- | --- | --- | --- | --- | --- | --- | --- | --- | --- | --- | --- |
| Cc1ccc(Nc2nc3ccccc3c(=O)n2N)cc1 | > 100 µM (inactive) | > 100 µM (inactive) | > 100 µM (inactive) | > 100 µM (inactive) | > 100 µM (inactive) | > 100 µM (inactive) | > 100 µM (inactive) | > 100 µM (inactive) | > 100 µM (inactive) | > 100 µM (inactive) | > 100 µM (inactive) | > 100 µM (inactive) | > 100 µM (inactive) | > 100 | > 100 µM (inactive) | > 100 µM (inactive) | > 100 µM (inactive) | > 100 µM (inactive) | > 100 µM (inactive) | > 100 µM (inactive) |
| Cc1nc(Cl)c(C)c(Cl)n1 | > 100 µM (inactive) | 33.3 µM (inactive) | > 53 µM (inactive) | > 55.8 µM (inactive) | 33 µM (inactive) | > 100 µM (inactive) | > 100 µM (inactive) | > 84.5 µM (inactive) | 8.59 µM (inactive) | > 100 µM (inactive) | > 100 µM (inactive) | > 100 µM (inactive) | 6.17 µM (inactive) | > 63.4 | > 100 µM (inactive) | > 100 µM (inactive) | > 100 µM (inactive) | > 100 µM (inactive) | 52.7 µM (inactive) | > 100 µM (inactive) |
| CN(C)c1ccc(/N=N/c2ccncc2)cc1 | > 100 µM (inactive) | 28.8 µM (inactive) | 31.2 µM (inactive) | > 100 µM (inactive) | 93.1 µM (inactive) | > 100 µM (inactive) | > 100 µM (inactive) | 40.8 µM (inactive) | > 100 µM (inactive) | > 100 µM (inactive) | > 100 µM (inactive) | > 100 µM (inactive) | 39.8 µM (inactive) | > 100 | > 100 µM (inactive) | 84.1 µM (inactive) | > 100 µM (inactive) | 47.1 µM (inactive) | 48.1 µM (inactive) | > 100 µM (inactive) |
| Cc1cc(N(CCOS(C)(=O)=O)CCOS(C)(=O)=O)ccc1/C=N/c1ccc(-c2csc(-c3ccc(Br)cc3)n2)cc1 | 15.2 µM (inactive) | 17.2 µM (inactive) | 15.1 µM (inactive) | 15.6 µM (inactive) | 9.18 µM (inactive) | 10.9 µM (inactive) | 10.7 µM (inactive) | 1.02 µM (active) | 2.58 µM (inactive) | 2.95 µM (inactive) | 0.0483 µM (active) | 1.17 µM (inactive) | 2.38 µM (inactive) | 15.2 | 1.78 µM (inactive) | 20.5 µM (inactive) | 10.3 µM (inactive) | 16 µM (inactive) | 26.5 µM (inactive) | 7.57 µM (inactive) |
| COc1cc(OC)c(/C=C\c2cc(/C=C/c3c(OC)cc(OC)cc3OC)c3ccccc3[n+]2C)c(OC)c1 | 1.28 µM (inactive) | 2.48 µM (inactive) | > 100 µM (inactive) | 2.39 µM (inactive) | 4.07 µM (inactive) | 2.37 µM (inactive) | 2.18 µM (inactive) | 2.86 µM (inactive) | 2 µM (inactive) | 2.31 µM (inactive) | 2.21 µM (inactive) | 2.22 µM (inactive) | 1.98 µM (inactive) | 0.719 | 3.41 µM (inactive) | 4.1 µM (inactive) | 2.33 µM (inactive) | 2 µM (inactive) | 8.39 µM (inactive) | 16 µM (inactive) |
| O=C1O/C(=C\c2ccc(O)c(Br)c2)C(c2ccc(O)c(Cl)c2)=C1Br | 13.5 µM (inactive) | 16 µM (inactive) | 19.9 µM (inactive) | 17.3 µM (inactive) | 44.6 µM (inactive) | 19 µM (inactive) | 25.8 µM (inactive) | 16.7 µM (inactive) | 20 µM (inactive) | 16.1 µM (inactive) | 17.1 µM (inactive) | 18.6 µM (inactive) | 16.6 µM (inactive) | 12.7 | 17.2 µM (inactive) | 17.9 µM (inactive) | 17.8 µM (inactive) | 13.2 µM (inactive) | 11.5 µM (inactive) | 25.2 µM (inactive) |
| O=C(Nc1ccccc1C(=O)NCCCO)/C(=C/c1ccccc1O)NC(=O)c1ccccc1 | 30 µM (inactive) | > 50.5 µM (inactive) | 17 µM (inactive) | > 84.3 µM (inactive) | 21.5 µM (inactive) | 16.3 µM (inactive) | > 80.9 µM (inactive) | 5.36 µM (inactive) | > 100 µM (inactive) | 34.4 µM (inactive) | > 72.1 µM (inactive) | 30.8 µM (inactive) | > 100 µM (inactive) | > 78.2 | 28.1 µM (inactive) | 19.8 µM (inactive) | 48.8 µM (inactive) | > 100 µM (inactive) | 56.8 µM (inactive) | 97.9 µM (inactive) |
| O=C(CCc1ccccc1)n1cccc1CO | > 100 µM (inactive) | > 100 µM (inactive) | > 100 µM (inactive) | > 100 µM (inactive) | > 100 µM (inactive) | 96.4 µM (inactive) | > 100 µM (inactive) | > 100 µM (inactive) | > 100 µM (inactive) | > 100 µM (inactive) | > 100 µM (inactive) | > 100 µM (inactive) | > 100 µM (inactive) | > 100 | 93.3 µM (inactive) | > 100 µM (inactive) | > 100 µM (inactive) | > 100 µM (inactive) | > 100 µM (inactive) | > 100 µM (inactive) |
| Fc1nc(Sc2ncnc3nc[nH]c23)nc(-c2c3ccccc3c3sc4ccccc4n23)n1 | > 100 µM (inactive) | > 100 µM (inactive) | > 100 µM (inactive) | > 100 µM (inactive) | 80 µM (inactive) | > 100 µM (inactive) | > 100 µM (inactive) | > 100 µM (inactive) | > 100 µM (inactive) | > 100 µM (inactive) | > 100 µM (inactive) | > 100 µM (inactive) | 77.8 µM (inactive) | > 100 | > 100 µM (inactive) | > 100 µM (inactive) | > 100 µM (inactive) | > 100 µM (inactive) | > 100 µM (inactive) | > 100 µM (inactive) |
| CN(C)Cc1cc(/N=N/c2cccc(Cl)c2)ccc1O | 16.9 µM (inactive) | 4.22 µM (inactive) | 5.05 µM (inactive) | 10.7 µM (inactive) | 4.16 µM (inactive) | 6.7 µM (inactive) | 28.6 µM (inactive) | 14.8 µM (inactive) | 17.3 µM (inactive) | 14.7 µM (inactive) | 12.8 µM (inactive) | 16 µM (inactive) | 13.2 µM (inactive) | 4.9 | 1.99 µM (inactive) | 15.9 µM (inactive) | 13.6 µM (inactive) | 18.8 µM (inactive) | 9.86 µM (inactive) | 10.6 µM (inactive) |
| CC1(C)CN(c2ccccc2)C(=O)C1OC(=O)[C@@]1(C)C[C@@H]2C=C[C@H]1C2 (stereo not given in full) | 19.2 µM (inactive) | 20.2 µM (inactive) | 23 µM (inactive) | 33.3 µM (inactive) | 18.9 µM (inactive) | 32.7 µM (inactive) | 21.3 µM (inactive) | 24.4 µM (inactive) | 20.3 µM (inactive) | 24.5 µM (inactive) | 23 µM (inactive) | 23.4 µM (inactive) | 38.2 µM (inactive) | 22.1 | 17.9 µM (inactive) | 33.9 µM (inactive) | 39.4 µM (inactive) | 12.3 µM (inactive) | 18.1 µM (inactive) | 30.7 µM (inactive) |
